Data: publication PMC10535816, “May 1,2-Dithiolane-4-carboxylic Acid and Its Derivatives Serve as a Specific Thioredoxin Reductase 1 Inhibitor?” (Molecules, 2023)

Molecular target: T1, TrxR1 (thioredoxin reductase 1) (Rattus norvegicus, UniProt O89049)
T1 construct: gene Txnrd1
T1 sequence (O89049 1-499): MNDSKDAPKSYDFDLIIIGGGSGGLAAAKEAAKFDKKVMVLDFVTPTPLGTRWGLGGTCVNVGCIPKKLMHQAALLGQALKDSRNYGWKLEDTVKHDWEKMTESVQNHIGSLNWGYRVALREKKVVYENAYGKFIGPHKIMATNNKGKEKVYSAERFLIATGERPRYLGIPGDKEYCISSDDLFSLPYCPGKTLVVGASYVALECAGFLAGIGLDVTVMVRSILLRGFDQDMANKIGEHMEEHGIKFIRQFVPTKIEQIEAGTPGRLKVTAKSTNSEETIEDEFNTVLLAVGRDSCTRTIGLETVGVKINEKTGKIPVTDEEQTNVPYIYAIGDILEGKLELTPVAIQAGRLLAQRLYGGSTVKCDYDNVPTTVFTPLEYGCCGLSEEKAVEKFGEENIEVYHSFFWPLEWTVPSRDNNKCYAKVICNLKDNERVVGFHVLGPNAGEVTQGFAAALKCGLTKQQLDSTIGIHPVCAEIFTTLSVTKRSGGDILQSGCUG
Test: biochemical

In the case of CC[C@H](C)[C@H](NC(=O)C1CSSC1)C(=O)O [2g, 2-(1,2-Dithiolane-4-carboxamido)-3-methylpentanoic acid], the IC50 is reported as 186 ± 14.9 µM.

In the case of O=C(Nc1cc2ccccc2oc1=O)C1CSSC1 [2j, N-(2-Oxo-2H-chromen-3-yl)-1,2-dithiolane-4-carboxamide], the IC50 is reported as 5.3 ± 0.4 µM.

O=C(Nc1ccc2oc(=O)ccc2c1)C1CSSC1 [2k, N-(2-oxo-2H-chromen-6-yl)-1,2-dithiolane-4-carboxamide] was tested, and the IC50 was 36.3 ± 2.9 µM.
